Structures are written as SMILES. *1 amine or outer side, *2 acyl side, *3 side chain or, on linkers, in order; H or OH if unused. Where a SMILES comes first, the peptide text is derived from it. Bridges are numbered along the chain shown (N, C = ends). [ ]: non-standard residue; d: D form. The star is where a group is joined. X1 = O=C(CC1(S[*:2])CCCCC1)[*:1]; For = O=C*

Chain of vasopressin receptors [V2 -receptors] (P32307 whole entry): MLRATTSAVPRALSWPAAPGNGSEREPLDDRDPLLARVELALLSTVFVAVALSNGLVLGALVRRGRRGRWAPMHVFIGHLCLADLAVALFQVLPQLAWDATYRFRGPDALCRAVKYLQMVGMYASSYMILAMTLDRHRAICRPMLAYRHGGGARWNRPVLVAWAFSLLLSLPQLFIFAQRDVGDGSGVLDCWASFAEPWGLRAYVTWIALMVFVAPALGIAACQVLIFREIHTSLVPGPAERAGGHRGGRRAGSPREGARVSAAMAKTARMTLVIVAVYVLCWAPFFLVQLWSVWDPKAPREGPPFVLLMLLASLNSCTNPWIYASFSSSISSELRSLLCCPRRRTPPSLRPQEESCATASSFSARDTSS

The target of this assay is vasopressin receptors [V2 -receptors] (Sus scrofa, UniProt P32307). Description: biochemical. The text has this:
Details of the in vitro protocols are in F. L. Stassen et al., J. of Pharm. Exp. Ther. 233, 50-54 (1982) but the calculations of cyclase activity and binding potential at the receptor site are as follows:
Test Procedure for Binding Assay:
These values represent total and non-specific binding, respectively.
Regarding `CC(C)[C@@H]1NC(=O)[C@H](Cc2ccccc2)NC(=O)[C@@H](Cc2cn(C=O)c3ccccc23)NC(=O)CC2(CCCCC2)SSC[C@@H](C(=O)N2CCC[C@H]2C(=O)N[C@@H](CCCNC(=N)N)C(=O)NCC(N)=O)NC(=O)[C@H](CC(N)=O)NC1=O` [D-Trp (For), [1-(β-mercapto-β,β-cyclopentamethylenepropionic acid)-2-D-tryptophan-(N-formyl)-4-valine-8-arginine]vasopressin] ([dW](For)FVNCPRG-NH2; linker N-5 via X1), the Kb turned out to be 78 nM.

`CC(C)[C@@H]1NC(=O)[C@H](Cc2ccccc2)NC(=O)[C@H](Cc2cn(C=O)c3ccccc23)NC(=O)CC2(CCCCC2)SSC[C@@H](C(=O)N2CCC[C@H]2C(=O)N[C@@H](CCCNC(=N)N)C(=O)NCC(N)=O)NC(=O)[C@H](CC(N)=O)NC1=O` [L-Trp (For)] (W(For)FVNCPRG-NH2; linker N-5 via X1) yielded a Kb of 840 nM.

The compound `CC(C)[C@@H]1NC(=O)[C@H](Cc2ccccc2)NC(=O)[C@H](Cc2c[nH]c3ccccc23)NC(=O)CC2(CCCCC2)SSC[C@@H](C(=O)N2CCC[C@H]2C(=O)N[C@@H](CCCNC(=N)N)C(=O)NCC(N)=O)NC(=O)[C@H](CC(N)=O)NC1=O` [L-Trp] (WFVNCPRG-NH2; linker N-5 via X1) yielded a Kb of 2100 nM.

The record behind these values is patent publication US4597901A, “β-indolylalanyl or β-indolylglycinyl vasopressin antagonists” (SmithKline Beckman Corporation, priority 1984, dated 1986).
